Reference: ChEMBL document CHEMBL1133531, “Carbonic anhydrase inhibitors: perfluoroalkyl/aryl-substituted derivatives of aromatic/heterocyclic sulfonamides as topical intraocular pressure-lowering agents with prolonged duration of action” (J Med Chem, 2000)

Experiments:
[1] = target: T1, Carbonic anhydrase 4 (Bos taurus, UniProt Q95323)
T1 sequence (Q95323 whole entry): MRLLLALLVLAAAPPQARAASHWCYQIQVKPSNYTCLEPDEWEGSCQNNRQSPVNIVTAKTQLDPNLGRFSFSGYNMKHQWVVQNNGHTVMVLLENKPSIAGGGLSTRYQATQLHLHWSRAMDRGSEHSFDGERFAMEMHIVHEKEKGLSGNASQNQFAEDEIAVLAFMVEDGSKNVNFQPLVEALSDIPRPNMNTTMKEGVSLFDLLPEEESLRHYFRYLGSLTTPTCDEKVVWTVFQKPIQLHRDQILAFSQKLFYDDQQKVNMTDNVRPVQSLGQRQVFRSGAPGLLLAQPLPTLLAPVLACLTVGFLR
Description: Inhibition of bovine carbonic anhydrase IV (CA4) from bovine lung microsomes

[2] = target: Carbonic anhydrase 1 (Homo sapiens, UniProt P00915)
Chain of Carbonic anhydrase 1 (P00915 whole entry): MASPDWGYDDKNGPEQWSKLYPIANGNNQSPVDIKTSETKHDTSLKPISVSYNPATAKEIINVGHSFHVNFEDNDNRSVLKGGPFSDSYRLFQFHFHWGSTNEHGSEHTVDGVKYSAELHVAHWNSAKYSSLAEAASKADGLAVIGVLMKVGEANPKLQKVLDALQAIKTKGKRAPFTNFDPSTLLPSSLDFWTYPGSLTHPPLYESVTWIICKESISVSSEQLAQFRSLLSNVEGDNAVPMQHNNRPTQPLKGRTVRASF
Description: Inhibition of human recombinant carbonic anhydrase I (CA1)

Structure (SMILES) | Ki [1] [nM] | Ki [2] [nM]
NS(=O)(=O)c1ccc(CCOC(=O)C(F)(F)C(F)(F)C(F)(F)C(F)(F)C(F)(F)C(F)(F)C(F)(F)C(F)(F)F)cc1 | 12000 | 20000
NS(=O)(=O)c1cc(S(N)(=O)=O)c(NS(=O)(=O)C(F)(F)C(F)(F)C(F)(F)C(F)(F)C(F)(F)C(F)(F)C(F)(F)C(F)(F)F)cc1Cl | 155 | 890
NS(=O)(=O)c1nnc(NC(=O)CCNS(=O)(=O)C(F)(F)C(F)(F)C(F)(F)C(F)(F)F)s1 | 11 | 300
NS(=O)(=O)c1ccc(NC(=O)C(F)(F)C(F)(F)C(F)(F)C(F)(F)C(F)(F)C(F)(F)C(F)(F)C(F)(F)F)c(Cl)c1 | 600 | 2300
NS(=O)(=O)c1nc2ccc(NS(=O)(=O)C(F)(F)F)cc2s1 | 8 | 70
NS(=O)(=O)c1cccc(NS(=O)(=O)c2ccc(NS(=O)(=O)C(F)(F)C(F)(F)C(F)(F)C(F)(F)F)cc2)c1 | 36 | 4000
NS(=O)(=O)c1cc(S(N)(=O)=O)c(NS(=O)(=O)C(F)(F)C(F)(F)C(F)(F)C(F)(F)F)cc1Cl | 43 | 400
NS(=O)(=O)c1ccc(COS(=O)(=O)C(F)(F)F)cc1 | 24100 | 135000
NS(=O)(=O)c1ccc(COS(=O)(=O)c2c(F)c(F)c(F)c(F)c2F)cc1 | 100 | 290
NS(=O)(=O)c1cccc(NS(=O)(=O)c2ccc(NS(=O)(=O)C(F)(F)F)cc2)c1 | 45 | 5000
Cn1nc(S(N)(=O)=O)sc1=NS(=O)(=O)C(F)(F)C(F)(F)C(F)(F)C(F)(F)C(F)(F)C(F)(F)C(F)(F)C(F)(F)F | 14 | 380
NS(=O)(=O)c1ccc(NS(=O)(=O)C(F)(F)F)c(I)c1 | 49000 | 210000
NS(=O)(=O)c1ccc(NS(=O)(=O)C(F)(F)F)c(Cl)c1 | 42000 | 180000
NS(=O)(=O)c1nnc(NC(=O)CCNC(=O)c2c(F)c(F)c(F)c(F)c2F)s1 | 10 | 300
NS(=O)(=O)c1ccc(NC(=O)C(F)(F)C(F)(F)C(F)(F)C(F)(F)C(F)(F)C(F)(F)C(F)(F)C(F)(F)F)c(Br)c1 | 620 | 2500
NS(=O)(=O)c1ccc(Nc2ccnc(NS(=O)(=O)c3c(F)c(F)c(F)c(F)c3F)n2)cc1 | 24 | 325
NS(=O)(=O)c1ccccc1NS(=O)(=O)C(F)(F)C(F)(F)C(F)(F)C(F)(F)F | 900 | 22000
Cn1nc(S(N)(=O)=O)s/c1=N/S(=O)(=O)c1ccc(NC(=O)C(F)(F)C(F)(F)C(F)(F)C(F)(F)C(F)(F)C(F)(F)C(F)(F)C(F)(F)F)cc1 | 12 | 900
Cn1nc(S(N)(=O)=O)s/c1=N/C(=O)c1c(F)c(F)c(F)c(F)c1F | 8 | 270
NS(=O)(=O)c1ccc(NC(=O)c2c(F)c(F)c(F)c(F)c2F)c(F)c1 | 185 | 760
NS(=O)(=O)c1ccc(NS(=O)(=O)C(F)(F)F)c(F)c1 | 29000 | 100000
NS(=O)(=O)c1ccc(CCOS(=O)(=O)C(F)(F)C(F)(F)C(F)(F)C(F)(F)F)cc1 | 9200 | 20900
Cn1nc(S(N)(=O)=O)sc1=NS(=O)(=O)C(F)(F)C(F)(F)C(F)(F)C(F)(F)F | 10 | 350
NS(=O)(=O)c1nnc(NC(=O)CCNS(=O)(=O)C(F)(F)F)s1 | 40 | 3000
NS(=O)(=O)c1ccc(NS(=O)(=O)c2ccc(NS(=O)(=O)C(F)(F)F)cc2)cc1 | 40 | 4000
NS(=O)(=O)c1ccc(CCNS(=O)(=O)C(F)(F)F)cc1 | 50000 | 81300
NS(=O)(=O)c1nc2ccc(NC(=O)C(F)(F)C(F)(F)C(F)(F)C(F)(F)C(F)(F)C(F)(F)C(F)(F)C(F)(F)F)cc2s1 | 9 | 45
Cn1nc(S(N)(=O)=O)s/c1=N/S(=O)(=O)c1ccc(NS(=O)(=O)c2c(F)c(F)c(F)c(F)c2F)cc1 | 9 | 21

The remaining lines, values ahead:

Ki [1] [nM] | Ki [2] [nM] | Structure (SMILES)
95300 | 188000 | NS(=O)(=O)c1cccc(NS(=O)(=O)C(F)(F)F)c1
26 | 300 | NS(=O)(=O)c1cc(S(N)(=O)=O)c(NS(=O)(=O)c2c(F)c(F)c(F)c(F)c2F)cc1Cl
24 | 1000 | Cn1nc(S(N)(=O)=O)s/c1=N/S(=O)(=O)c1ccc(NS(=O)(=O)C(F)(F)C(F)(F)C(F)(F)C(F)(F)F)cc1
870 | 1400 | NS(=O)(=O)c1cccc(NS(=O)(=O)C(F)(F)C(F)(F)C(F)(F)C(F)(F)C(F)(F)C(F)(F)C(F)(F)C(F)(F)F)c1
10900 | 15000 | NS(=O)(=O)c1ccc(COS(=O)(=O)C(F)(F)C(F)(F)C(F)(F)C(F)(F)C(F)(F)C(F)(F)C(F)(F)C(F)(F)F)cc1
160 | 5100 | NS(=O)(=O)c1cc(S(N)(=O)=O)c(NS(=O)(=O)C(F)(F)C(F)(F)C(F)(F)C(F)(F)F)c(Cl)c1Cl
675 | 1760 | NS(=O)(=O)c1ccc(NS(=O)(=O)c2c(F)c(F)c(F)c(F)c2F)c(I)c1
410 | 1200 | NS(=O)(=O)c1ccc(COC(=O)c2c(F)c(F)c(F)c(F)c2F)cc1
240 | 790 | NS(=O)(=O)c1ccc(CNS(=O)(=O)c2c(F)c(F)c(F)c(F)c2F)cc1
865 | 1870 | NS(=O)(=O)c1ccc(NC(=O)c2c(F)c(F)c(F)c(F)c2F)c(Br)c1
590 | 18400 | NS(=O)(=O)c1cccc(NS(=O)(=O)C(F)(F)C(F)(F)C(F)(F)C(F)(F)F)c1
725 | 5500 | NS(=O)(=O)c1cc(S(N)(=O)=O)c(NS(=O)(=O)C(F)(F)F)c(Cl)c1Cl
500 | 1450 | NS(=O)(=O)c1ccc(NS(=O)(=O)C(F)(F)C(F)(F)C(F)(F)C(F)(F)C(F)(F)C(F)(F)C(F)(F)C(F)(F)F)c(F)c1
540 | 1450 | NS(=O)(=O)c1ccc(NS(=O)(=O)c2c(F)c(F)c(F)c(F)c2F)c(Cl)c1
1040 | 23400 | NS(=O)(=O)c1ccc(NS(=O)(=O)C(F)(F)C(F)(F)C(F)(F)C(F)(F)F)c(I)c1
9 | 300 | NS(=O)(=O)c1nnc(NC(=O)CCNS(=O)(=O)C(F)(F)C(F)(F)C(F)(F)C(F)(F)C(F)(F)C(F)(F)C(F)(F)C(F)(F)F)s1
130 | 810 | NS(=O)(=O)c1cc(S(N)(=O)=O)c(NC(=O)C(F)(F)C(F)(F)C(F)(F)C(F)(F)C(F)(F)C(F)(F)C(F)(F)C(F)(F)F)cc1Cl
30 | 3000 | NS(=O)(=O)c1cccc(NS(=O)(=O)c2ccc(NC(=O)C(F)(F)C(F)(F)C(F)(F)C(F)(F)C(F)(F)C(F)(F)C(F)(F)C(F)(F)F)cc2)c1
400 | 1250 | NS(=O)(=O)c1ccc(CCOC(=O)c2c(F)c(F)c(F)c(F)c2F)cc1

Ki [1] [nM] | Ki [2] [nM] | Structure (SMILES)
25 | 1100 | Cn1nc(S(N)(=O)=O)s/c1=N/S(=O)(=O)c1ccc(NS(=O)(=O)C(F)(F)C(F)(F)C(F)(F)C(F)(F)C(F)(F)C(F)(F)C(F)(F)C(F)(F)F)cc1
97000 | 175000 | NS(=O)(=O)c1ccccc1NS(=O)(=O)C(F)(F)F
8 | 28 | NS(=O)(=O)c1nc2ccc(OS(=O)(=O)C(F)(F)C(F)(F)C(F)(F)C(F)(F)C(F)(F)C(F)(F)C(F)(F)C(F)(F)F)cc2s1
142 | 1500 | NS(=O)(=O)c1cc(S(N)(=O)=O)c(NS(=O)(=O)c2c(F)c(F)c(F)c(F)c2F)c(Cl)c1Cl
18 | 330 | Cn1nc(S(N)(=O)=O)s/c1=N/C(=O)C(F)(F)C(F)(F)C(F)(F)C(F)(F)C(F)(F)C(F)(F)C(F)(F)C(F)(F)F
54 | 750 | NS(=O)(=O)c1cc(S(N)(=O)=O)c(NC(=O)c2c(F)c(F)c(F)c(F)c2F)cc1Cl
705 | 1000 | NS(=O)(=O)c1ccc(CNS(=O)(=O)C(F)(F)C(F)(F)C(F)(F)C(F)(F)C(F)(F)C(F)(F)C(F)(F)C(F)(F)F)cc1
5 | 17 | NS(=O)(=O)c1nc2ccc(OCCOS(=O)(=O)C(F)(F)C(F)(F)C(F)(F)C(F)(F)C(F)(F)C(F)(F)C(F)(F)C(F)(F)F)cc2s1
32 | 1500 | NS(=O)(=O)c1nnc(NS(=O)(=O)c2ccc(NC(=O)c3c(F)c(F)c(F)c(F)c3F)cc2)s1
240 | 12500 | NS(=O)(=O)c1ccc(CCNS(=O)(=O)C(F)(F)C(F)(F)C(F)(F)C(F)(F)F)cc1
590 | 1080 | NS(=O)(=O)c1ccc(NC(=O)c2c(F)c(F)c(F)c(F)c2F)c(Cl)c1
7 | 18 | NS(=O)(=O)c1nc2ccc(OCCOS(=O)(=O)c3c(F)c(F)c(F)c(F)c3F)cc2s1
230 | 760 | NS(=O)(=O)c1ccc(CCNS(=O)(=O)c2c(F)c(F)c(F)c(F)c2F)cc1
25 | 1000 | NS(=O)(=O)c1nnc(NS(=O)(=O)c2ccc(NS(=O)(=O)C(F)(F)F)cc2)s1
410 | 890 | NS(=O)(=O)c1ccc(NS(=O)(=O)c2c(F)c(F)c(F)c(F)c2F)cc1
24500 | 138000 | NS(=O)(=O)c1ccc(CNS(=O)(=O)C(F)(F)F)cc1
16 | 150 | NS(=O)(=O)c1cccc(NS(=O)(=O)c2ccc(NS(=O)(=O)c3c(F)c(F)c(F)c(F)c3F)cc2)c1
6 | 54 | NS(=O)(=O)c1nc2ccc(NS(=O)(=O)C(F)(F)C(F)(F)C(F)(F)C(F)(F)F)cc2s1
1200 | 1500 | NS(=O)(=O)c1ccccc1NS(=O)(=O)C(F)(F)C(F)(F)C(F)(F)C(F)(F)C(F)(F)C(F)(F)C(F)(F)C(F)(F)F
